Laboratory results reported in patent US9333199B2, “Methods of treatment of histamine H-4 receptor-related pruritus associated with nerve disorders” (BRIDGE PHARMA, INC., priority 2013, dated 2016).

What was measured:
[1] = tested on: histamine-induced pruritus; test: Antipruritic activity, histamine-induced pruritus in mice; format: in vivo, CD-1 mice; details: for inhibition of pruritus following histamine injections (in words): intradermal histamine, Example 5, JNJ7777120 and desloratadine 20 mg/kg oral
Experimental: Antipruritic effects were tested in vivo in CD-1 mice, females, 10-12 weeks, according to methods known in the art. The hair was clipped over the rostral part of the back at the interscapular level of the mice one day before the dosing. Before the testing, the mice were placed in individual clear plastic cages for at least one hour for acclimation. After fasting for 1.5 hours, the animals were dosed orally with the test article, dissolved in a vehicle consisting of 1% methylcellulose/water, 10 mL/kg body weight. Sixty minutes after the oral dosing, an intradermal injection of histamine (300 nmol in 20 μl phosphate buffered saline (PBS), pH 7.4) was administered. Immediately after the histamine injection, the bouts of scratches were counted for 40 min. Scratching induced by the histamine vehicle PBS served as control.
Norketotifen was tested in escalating doses and in a supramaximal dose of 100 mg/kg.

[2] = Repeat-dose pharmacological and toxicological studies in dogs; format: in vivo; details: daily doses up to 20 mg/kg/day
Excerpt: Dogs vomit spontaneously for a variety of benign reasons—to expel unwanted content from their stomach, as a result of gastric irritation or in response to colonic irritation. In recent toxicological studies in dogs of various drugs, including isomeric norketotifen, vomiting occurred in both control groups and drug groups and may have been treatment-related, rather than drug-related. The unexpectedly low systemic toxicity of norketotifen and the isomers thereof is believed to be due to low systemic (plasma) concentrations, caused by the fact that norketotifen and the isomers thereof are not circulating in plasma but are accumulating in the skin, which is the largest organ in the body.

[3] = Sedation in human subjects; format: in vivo; details: doses of 5 mg and 10 mg, humans
[4] = tested on: histamine-induced pruritus; details: intradermal histamine, humans and mice; not tested in Example 5; cited from earlier work

| SMILES | inhibition of pruritus following histamine injections (in words) [1] | sedation or other adverse events, chronic dosing [2] | inhibition of histamine-induced pruritus at supramaximal dose ([1]; 100 mg/kg oral, histamine 300 nmol intradermal, bouts counted 40 min) | inhibition of histamine-induced pruritus, escalating doses ([1]; escalating oral doses, histamine 300 nmol intradermal) | sedation in human subjects [3] | inhibition of pruritus following histamine injections (in words), general statement [4] |
| --- | --- | --- | --- | --- | --- | --- |
| CN1CCN(C(=O)c2cc3cc(Cl)ccc3[nH]2)CC1 [JNJ7777120, reference compound] | potently inhibited |  |  |  |  |  |
| O=C1Cc2ccccc2C(=C2CCNCC2)c2ccsc21 [Norketotifen, norketotifen] | potently inhibited | without causing sedation or other adverse events | complete inhibition | dose-dependently inhibiting histamine-induced pruritus | do not produce sedation |  |
| CC(C)(C(=O)O)c1ccc(C(O)CCCN2CCC(C(O)(c3ccccc3)c3ccccc3)CC2)cc1 (stereo not shown) [fexofenadine] |  |  |  |  |  | not inhibited |
